Our source for the TGI and GI50 values is PubChem BioAssay (NCI).

“And” between values parts separate entries of the source, which are not always exact repeats. Equal values may be shown once.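 Values below derive from 48-hour exposures of cells grown in 96-well plates, with endpoints linearly interpolated between the two concentrations bracketing the appropriate inhibition level. At the GI50, growth is halved. TGI: concentration producing complete growth inhibition.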

Holding throughout (assay): NCI-60 cell line screen, 48 h
Assay [1] concerns HOP-18 NSCLC.
Assay [2] relates to MCF7 breast.
Assay [3] deals with LXFL 529 NSCLC.
The subject of assay [4] is MDA-MB-231 breast.
In assay [5] the test system is DMS 273 small cell lung.
In assay [6] the test system is DMS 114 small cell lung.
For assay [7], the system named is BT-549 breast.
In assay [8] the test system is KM20L2 colon.
Assay [9] concerns T-47D breast.
Assay [10] has as its system SNB-78 CNS.
The test system of assay [11] is DLD-1 colon.

For `CC[n+]1c(-c2ccccc2)c2cc(N)ccc2c2ccc(N)cc21`, the TGI is 18.3 µM in [1]; 12.9 µM and 15.3 µM in [2]; 2.94 µM in assay [3]; 39.3 µM and 37.3 µM in assay [4]; 10.7 µM in assay [5]; 10.1 µM in [6]. For the same compound, the TGI in assay [7] is 3.01 µM and 3.87 µM; in assay [8] it was 25.9 µM; in assay [9], 2.91 µM and 15 µM. Moreover, the GI50 in [2] was 1.07 µM; in assay [4], 2.11 µM; in assay [7], 0.831 µM; in assay [9] it was 0.323 µM.

Regarding `COC(=O)C1CCC(C)CC1=O` (configuration not stated), the TGI in assay [3], in [5], in assay [6], in assay [10] and in assay [11] was > 100 µM each time.

As for `Cc1ccc(-n2nc(C(OC3OC(CO)C(O)C(O)C3O)C(O)CO)c3nc4cc(C)c(C)cc4nc32)cc1` (configuration not stated), the TGI in assay [3], in [6], in [10], in assay [8] and in [11] was > 100 µM in each case.

Consider `CS(=O)(=O)OCCN1CCN(C(=O)c2ccc(Cl)c3c(Nc4ccc(S(=O)(=O)N=C(N)N)cc4)c4ccccc4nc23)CC1`, for which the TGI in assay [5], in [6], in [8] and in assay [11] was > 100 µM in each case.

Consider `Cc1nc2ccncc2[nH]1`, for which the TGI in assay [3], in [5], in assay [6], in assay [8] and in [11] was > 100 µM each time.

With `COc1ccc(/C=C/C(=O)c2c(-c3ccccc3)nn(C)c(=O)c2N2CCCCC2)cc1`, the TGI was 73.9 µM in assay [1]; 98.8 µM in [3]; > 100 µM in assay [5]; 78.4 µM in assay [6]; 33.8 µM in assay [8]; 82.6 µM in assay [11].

For the compound `OC1=CN=C(c2ccccc2)Oc2ccccc21`, the TGI in [3], in assay [5], in assay [6], in assay [10], in [8] and in [11] was > 100 µM each time.

Regarding `O=C1C2C(C(=O)N1Cc1ccccc1)N(Cc1ccccc1)C(=O)N2Cc1ccccc1` (configuration not stated), the TGI in [3], in assay [6], in assay [10], in assay [8] and in assay [11] was > 100 µM throughout.

As for `CC(C)(C)C1=NO[C@H]2[C@@H](NC(=O)c3ccccc3)CC[C@@H]12`, the TGI in assay [3], in assay [6], in assay [10], in assay [8] and in [11] was > 100 µM throughout.

As for `Cc1ccc(S(=O)(=O)Nc2ccccc2C(C)(C)C)cc1`, the TGI was 78.1 µM in [3]; 38.5 µM in assay [5]; 60.4 µM in assay [6]; > 100 µM in [10]; 36.7 µM in assay [8]; > 100 µM in assay [11].

Turning to `CN(C)CCNC(=O)Nc1ccc(N(C)c2ccnc(Nc3ccc(CS(C)(=O)=O)cc3)n2)cc1`, the GI50 in [2], in [4], in assay [7] and in assay [9] was > 25 µM in each case. The TGI in [2], in [4], in assay [7] and in [9] was > 25 µM throughout.

Take `C=C1C(=O)O[C@@H]2C[C@@]3(C)[C@H](O)CCC(=C)[C@@H]3C[C@H]12`: the TGI in assay [3] turned out to be 12.8 µM; in [5] it was 27.4 µM; in assay [6], 42.2 µM; in assay [10], 27.8 µM; in assay [8] it was 20.3 µM; in assay [11] it was 16.5 µM.

Turning to `OCCNc1nc2ccccc2c2[nH]c3ccccc3c12`, the GI50 in assay [2] was 0.355 µM; in [4], 0.611 µM; in assay [7] it was 1.73 µM; in assay [9] it was 0.366 µM. The TGI in [2] was found to be 2 µM; in assay [4], 3.63 µM; in [7], 6.68 µM; in [9], 2.29 µM.

Consider `Nc1nc(Cl)c2ncn(Cc3ccc(C45CC6CC(CC(C6)C4)C5)c(OCc4cc(F)c(F)cc4F)c3)c2n1`, for which the GI50 is 3.12 µM in assay [2], 2.58 µM in assay [4], 3.86 µM in assay [7] and 6.75 µM in assay [9]. Further, the TGI in assay [2] is 16.3 µM; in [4], 9.81 µM; in [7], 13 µM; in assay [9], 44.8 µM.

Consider `Cc1nc2sccn2c1C(=O)NNC(N)=S`, for which the TGI in assay [1], in [3], in [5], in assay [6], in [8] and in [11] was > 100 µM throughout.

`O=C(Nc1nc(=S)[nH][nH]1)C(=O)C(c1cnc2ccc([N+](=O)[O-])cc2n1)[N+](=O)[O-]` (configuration not stated): the TGI in assay [1], in [3], in assay [6], in assay [10], in [8] and in assay [11] was > 100 µM each time.

Consider `C#COc1cccc(Nc2ncnc3cc(NC(=O)[C@@H](C)Cl)ccc23)c1`, for which the GI50 in [2] is 18.8 µM; in [4], 17.2 µM; in [7] it was 6.89 µM; in [9] it was 22.5 µM. The TGI in assay [2], in [4], in [7] and in assay [9] was > 62.5 µM each time.

In the case of `C#Cc1cccc(NC(=O)/C=C\C(=O)O)c1`, the TGI in [3], in assay [10], in assay [8] and in assay [11] was > 100 µM throughout.

With `Cn1cc(-c2ccc3ncc(-c4ccc(CC(=O)Nc5cc(C(C)(C)C)nn5C)cc4)cc3c2)cn1`, the GI50 in assay [2] is 1.47 µM; in [4], 2.37 µM; in assay [7], 0.589 µM; in assay [9], 0.617 µM. Also, the TGI in assay [2] is > 20 µM; in [4] it was > 20 µM; in assay [7] it was 2.78 µM; in assay [9], 5.91 µM.
